Results reported in ChEMBL document CHEMBL4507266, “Data for DCP probe BAY-784” (2021).

What was measured:
Conditions in all cases: Compound concentration 10.0 uM
[1] = species on record: Rattus norvegicus; assay: Inhibition of Glycine, Strychnine-Sensitive at 10 µM in the Eurofins-Panlabs radioligand binding assay (Eurofins_assay_239000)
[2] = molecular target: D(2) dopamine receptor (Homo sapiens) (UniProt P14416)
[3] = molecular target: 5-hydroxytryptamine receptor 5A (Homo sapiens) (UniProt P47898)
Sequence of 5-hydroxytryptamine receptor 5A (Homo sapiens) (P47898 whole entry): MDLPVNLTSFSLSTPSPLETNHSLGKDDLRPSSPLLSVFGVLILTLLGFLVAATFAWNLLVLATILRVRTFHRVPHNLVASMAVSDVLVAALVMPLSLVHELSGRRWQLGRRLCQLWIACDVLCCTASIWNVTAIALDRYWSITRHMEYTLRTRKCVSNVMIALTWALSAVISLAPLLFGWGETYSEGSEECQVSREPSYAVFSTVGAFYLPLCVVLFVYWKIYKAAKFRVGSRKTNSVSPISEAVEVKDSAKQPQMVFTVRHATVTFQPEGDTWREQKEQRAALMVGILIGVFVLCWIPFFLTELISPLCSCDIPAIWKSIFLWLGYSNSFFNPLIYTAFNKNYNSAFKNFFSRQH

[4] = molecular target: Receptor tyrosine-protein kinase erbB-2 (Homo sapiens) (UniProt P04626); assay: Inhibition of Protein Tyrosine Kinase, ERBB2 (HER2) at 10 µM in the Eurofins-Panlabs enzyme assay (Eurofins_assay_174020); parameters: substrate with concentration
Sequence of Receptor tyrosine-protein kinase erbB-2 (Homo sapiens) (P04626 whole entry): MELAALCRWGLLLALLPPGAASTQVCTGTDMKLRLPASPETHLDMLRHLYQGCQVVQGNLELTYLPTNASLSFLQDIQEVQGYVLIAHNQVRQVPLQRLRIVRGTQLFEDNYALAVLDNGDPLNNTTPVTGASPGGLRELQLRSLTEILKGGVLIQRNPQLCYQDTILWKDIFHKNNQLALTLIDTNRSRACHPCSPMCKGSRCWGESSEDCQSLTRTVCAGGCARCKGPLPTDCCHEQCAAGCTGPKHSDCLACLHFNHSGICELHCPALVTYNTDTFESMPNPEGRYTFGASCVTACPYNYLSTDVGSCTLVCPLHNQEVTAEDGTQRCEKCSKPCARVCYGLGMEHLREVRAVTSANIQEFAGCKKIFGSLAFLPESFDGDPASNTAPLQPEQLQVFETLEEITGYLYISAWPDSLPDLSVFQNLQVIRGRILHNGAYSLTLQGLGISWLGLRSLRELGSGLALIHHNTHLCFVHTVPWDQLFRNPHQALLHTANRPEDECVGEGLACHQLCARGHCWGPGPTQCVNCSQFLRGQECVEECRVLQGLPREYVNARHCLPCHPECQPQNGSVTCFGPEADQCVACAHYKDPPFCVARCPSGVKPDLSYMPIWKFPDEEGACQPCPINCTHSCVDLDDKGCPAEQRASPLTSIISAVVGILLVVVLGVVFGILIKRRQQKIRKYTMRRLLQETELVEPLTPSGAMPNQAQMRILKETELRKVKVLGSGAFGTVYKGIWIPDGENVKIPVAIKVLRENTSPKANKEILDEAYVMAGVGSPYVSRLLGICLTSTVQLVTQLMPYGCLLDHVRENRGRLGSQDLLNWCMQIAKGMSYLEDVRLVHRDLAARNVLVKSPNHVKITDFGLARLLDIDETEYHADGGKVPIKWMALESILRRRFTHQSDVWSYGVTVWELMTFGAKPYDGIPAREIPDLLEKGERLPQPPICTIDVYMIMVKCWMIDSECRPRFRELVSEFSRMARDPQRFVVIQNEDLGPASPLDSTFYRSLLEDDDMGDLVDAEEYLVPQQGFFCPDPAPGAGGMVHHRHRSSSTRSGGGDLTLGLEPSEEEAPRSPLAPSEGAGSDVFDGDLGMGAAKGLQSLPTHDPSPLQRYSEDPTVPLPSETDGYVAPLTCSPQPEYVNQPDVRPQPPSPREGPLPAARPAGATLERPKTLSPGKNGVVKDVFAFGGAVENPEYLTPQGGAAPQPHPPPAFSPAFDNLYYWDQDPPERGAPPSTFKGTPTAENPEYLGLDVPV

[5] = molecular target: T1, Muscarinic acetylcholine receptor M2 (Homo sapiens) (UniProt P08172)
T1 sequence (whole entry): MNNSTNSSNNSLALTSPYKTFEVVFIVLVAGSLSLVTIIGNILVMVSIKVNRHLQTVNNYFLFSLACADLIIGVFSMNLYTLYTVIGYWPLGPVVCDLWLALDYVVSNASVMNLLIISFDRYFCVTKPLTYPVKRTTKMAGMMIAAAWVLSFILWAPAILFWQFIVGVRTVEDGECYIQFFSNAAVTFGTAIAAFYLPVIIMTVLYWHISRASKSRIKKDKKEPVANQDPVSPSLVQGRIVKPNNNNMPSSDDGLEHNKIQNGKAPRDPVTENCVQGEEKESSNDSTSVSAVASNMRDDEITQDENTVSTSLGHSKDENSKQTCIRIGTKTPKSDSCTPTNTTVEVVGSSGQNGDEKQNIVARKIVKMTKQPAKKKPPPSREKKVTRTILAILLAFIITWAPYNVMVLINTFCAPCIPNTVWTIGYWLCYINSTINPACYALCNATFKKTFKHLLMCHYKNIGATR

[6] = molecular target: Receptor-type tyrosine-protein phosphatase C (Homo sapiens) (UniProt P08575); assay: Inhibition of Protein Tyrosine Phosphatase, PTPRC (CD45) at 10 µM in the Eurofins-Panlabs enzyme assay (Eurofins_assay_190010)
Sequence of Receptor-type tyrosine-protein phosphatase C (Homo sapiens) (P08575 whole entry): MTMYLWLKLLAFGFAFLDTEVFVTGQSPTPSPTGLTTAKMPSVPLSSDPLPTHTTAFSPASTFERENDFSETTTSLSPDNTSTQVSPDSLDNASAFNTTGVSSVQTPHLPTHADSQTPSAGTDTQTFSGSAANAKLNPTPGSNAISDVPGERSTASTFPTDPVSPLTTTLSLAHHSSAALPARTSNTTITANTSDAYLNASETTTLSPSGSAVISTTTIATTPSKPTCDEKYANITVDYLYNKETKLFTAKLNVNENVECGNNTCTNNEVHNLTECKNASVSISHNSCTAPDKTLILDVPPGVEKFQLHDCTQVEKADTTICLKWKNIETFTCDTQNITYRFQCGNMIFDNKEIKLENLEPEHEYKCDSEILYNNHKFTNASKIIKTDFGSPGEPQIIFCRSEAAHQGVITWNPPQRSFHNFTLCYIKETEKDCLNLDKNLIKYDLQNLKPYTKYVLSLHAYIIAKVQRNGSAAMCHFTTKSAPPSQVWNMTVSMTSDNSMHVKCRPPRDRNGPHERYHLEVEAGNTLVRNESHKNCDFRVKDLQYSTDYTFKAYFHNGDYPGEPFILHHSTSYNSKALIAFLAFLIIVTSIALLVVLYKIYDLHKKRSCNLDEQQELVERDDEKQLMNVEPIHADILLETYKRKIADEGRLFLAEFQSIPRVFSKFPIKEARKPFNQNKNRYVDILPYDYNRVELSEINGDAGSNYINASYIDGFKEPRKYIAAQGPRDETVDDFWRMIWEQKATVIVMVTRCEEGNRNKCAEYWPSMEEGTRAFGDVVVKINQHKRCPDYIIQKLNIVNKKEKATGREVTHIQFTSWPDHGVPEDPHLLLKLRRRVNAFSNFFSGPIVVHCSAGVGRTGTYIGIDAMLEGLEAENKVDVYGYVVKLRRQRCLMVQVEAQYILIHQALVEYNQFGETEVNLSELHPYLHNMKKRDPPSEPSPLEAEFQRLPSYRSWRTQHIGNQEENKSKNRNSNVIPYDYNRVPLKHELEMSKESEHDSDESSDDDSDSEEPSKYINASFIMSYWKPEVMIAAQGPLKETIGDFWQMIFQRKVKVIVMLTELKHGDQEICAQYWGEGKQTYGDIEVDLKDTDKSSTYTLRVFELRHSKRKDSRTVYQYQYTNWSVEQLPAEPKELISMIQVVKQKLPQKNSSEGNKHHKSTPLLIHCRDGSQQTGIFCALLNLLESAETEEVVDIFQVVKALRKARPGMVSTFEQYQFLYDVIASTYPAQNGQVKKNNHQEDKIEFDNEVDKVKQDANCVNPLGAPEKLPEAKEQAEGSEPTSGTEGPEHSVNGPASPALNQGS

Measured: inhibition

Sequence of D(2) dopamine receptor (Homo sapiens) (P14416 whole entry): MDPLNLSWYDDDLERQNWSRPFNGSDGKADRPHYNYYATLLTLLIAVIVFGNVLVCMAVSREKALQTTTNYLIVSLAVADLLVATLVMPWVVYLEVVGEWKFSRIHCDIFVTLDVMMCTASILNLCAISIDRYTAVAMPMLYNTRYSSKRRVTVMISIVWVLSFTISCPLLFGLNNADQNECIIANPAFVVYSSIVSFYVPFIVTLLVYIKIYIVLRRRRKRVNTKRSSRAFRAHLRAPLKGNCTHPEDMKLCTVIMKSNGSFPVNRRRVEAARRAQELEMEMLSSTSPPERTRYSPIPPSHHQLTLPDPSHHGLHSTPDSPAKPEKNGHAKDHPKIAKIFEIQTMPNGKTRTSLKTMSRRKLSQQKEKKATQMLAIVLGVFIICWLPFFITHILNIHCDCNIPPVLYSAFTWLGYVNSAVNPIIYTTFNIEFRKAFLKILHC

O=C(NCc1ncc(C(F)(F)F)cc1Cl)c1ccc2c(c1)C1(CCS(=O)(=O)CC1)[C@H](C1CC1)N2S(=O)(=O)c1ccc(F)cc1 [BAY-784]
inactive: [1] 4% | [2] 4% | [3] -8.25% | [4] 6% | [5] -3% | [6] -5%
